Test results reported in patent US7390923B2, “Propionamide derivatives useful as androgen receptor modulators” (Orion Corporation, priority 2003, dated 2008).

Experiments:
[1] = target: T1, AR (Rattus norvegicus, UniProt P15207); assay: AR agonism and antagonism in immature male rats, 3-day assay, relative organ weights
T1 sequence (P15207 1-902): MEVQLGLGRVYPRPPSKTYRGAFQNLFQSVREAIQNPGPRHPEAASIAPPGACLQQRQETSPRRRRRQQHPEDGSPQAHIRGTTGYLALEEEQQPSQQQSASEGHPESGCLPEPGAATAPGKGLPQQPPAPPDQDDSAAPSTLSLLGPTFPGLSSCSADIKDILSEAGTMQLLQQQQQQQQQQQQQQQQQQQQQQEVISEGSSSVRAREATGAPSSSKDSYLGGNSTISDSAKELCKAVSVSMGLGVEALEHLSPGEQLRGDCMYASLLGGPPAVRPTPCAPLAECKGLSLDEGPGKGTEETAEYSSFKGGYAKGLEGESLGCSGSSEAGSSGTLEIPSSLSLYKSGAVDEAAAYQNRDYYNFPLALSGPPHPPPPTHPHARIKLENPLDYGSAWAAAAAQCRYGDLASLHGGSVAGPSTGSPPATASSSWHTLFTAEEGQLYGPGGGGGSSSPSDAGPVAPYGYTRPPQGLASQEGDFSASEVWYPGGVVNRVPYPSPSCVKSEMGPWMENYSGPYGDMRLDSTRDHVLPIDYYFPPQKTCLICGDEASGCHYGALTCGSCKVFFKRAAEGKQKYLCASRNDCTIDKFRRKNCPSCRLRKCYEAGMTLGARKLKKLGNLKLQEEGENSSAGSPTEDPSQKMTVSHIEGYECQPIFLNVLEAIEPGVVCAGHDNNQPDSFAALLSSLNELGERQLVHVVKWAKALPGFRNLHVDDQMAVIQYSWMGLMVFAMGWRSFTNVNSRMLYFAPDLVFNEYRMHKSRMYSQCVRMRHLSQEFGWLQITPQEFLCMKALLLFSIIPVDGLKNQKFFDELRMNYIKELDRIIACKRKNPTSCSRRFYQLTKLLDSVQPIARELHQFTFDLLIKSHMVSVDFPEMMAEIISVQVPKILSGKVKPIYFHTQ
Protocol: The title compound of Example 3, abbreviated here as compound A, was further studied in in vivo experiment. The agonism and antagonism of the compound with subcutaneous dosing was tested in immature male Spraque Dawley rat 3-day assay by analyzing the relative weights of ventral prostate, seminal vesicle, and levator ani-muscle. Testosterone propionate was used as a reference compound.
Testosterone propionate (abbreviated here TP) and compound A were first dissolved into DMSO and then into the vehicle sesame oil. Sprague-Dawley untreated male rats (18-19 days old) weighing about 50 g were used in the experiment. Rats were weighed and randomly distributed into five groups, with 5 animals per group (Table 1). Compound A (doses 2 and 20 mg/kg) and testosterone propionate (dose 5 mg/kg) were given subcutaneously (s.c.) into the neck/back of the animals at a constant volume of 100 microl dosing solution/animal/day. The animals were dosed once daily for three days, and clinical signs were recorded during dosing. At the end of the study, animals were weighed and anaesthetised by CO2 asphyxiation. Ventral prostate, seminal vesicles, and levator ani-muscle were dissected out, chilled, and weighed. For statistical analysis, the weights of all organs were normalized to body weights, and analyzed for statistical significant difference by single-factor ANOVA.
In the Figure, “a” means agonism, p<0.01 compared to vehicle group, “b” means antagonism, p<0.05 compared to testosterone group, bars represent mean±SEM.

[2] = target: T2, androgen receptor (AR) (Rattus norvegicus, UniProt P15207); assay: AR binding assay, competition with [3H]-mibolerone binding in rat ventral prostate cytosol; settings: 1 nM [3H]-mibolerone, overnight at 0° C.
T2 construct: Ventral prostates were obtained form rats castrated 24 h prior to sacrifice; from tissue; host or cells: rat ventral prostate cytosol (castrated rats, charcoal-treated)
T2 sequence (P15207 1-902): T1 sequence (P15207 1-902)
Protocol: Ventral prostates were obtained form rats castrated 24 h prior to sacrifice. Fresh prostate was minced and washed with Buffer A (Schilling and Liao, Prostate, 5:581-588, 1984). The minces were then homogenized in 3× volume of Buffer A containing protease inhibitors (Complete, Mini, EDTA-free Roche). The homogenate was centrifuged at 30000 g for 30 min. The resultant supernatants were treated with 1×volume of dextran-coated charcoal solution (12.5 g activated charcoal, 12.5 g dextran per liter of buffer A) to remove endogenous steroids. The samples were incubated for 5 min and centrifuged at 16000 g for 10 min. Aliquots of the charcoal-treated cytosol were taken for androgen receptor assays. All procedures were carried out at 0-4° C.
Cytosol androgen receptor concentration was determined as described (Isomaa et al., Endocrinology, 111: 833-843, 1982) with minor modifications. Cytosol preparations were prepared as described above, and bound and free steroids were separated by treatment with an equal volume of dextran-charcoal suspension for 5 min at 4° C. followed by centrifugation at 16000 g for 10 min. Bound radioactivity was determined by counting supernatant fractions in 1 ml of OptiPhase HiSafe3 or OptiPhase Supermix (PerkinElmer).
Cytosol preparations were labelled with 1 nM [^3H]-mibolerone overnight at 0° C. (total). To determine AR binding activity of the compounds of the present invention (test compounds), the ability of test compounds to compete with [^3H]7α,17α-dimethyl-17β-hydroxy-4-estren-3-one ([^3H]-mibolerone) binding was studied. 1 nM [^3H]-mibolerone and test compounds in two concentrations (0.2 and 2 uM) were incubated overnight at 0° C. To determine non-specific binding, parallel incubations were carried out using 1 nM concentration [^3H]-mibolerone with 500-fold molar excess of unlabelled testosterone. Two to four replicates were used for each sample. After incubation, bound and free steroids were separated as described above and bound radioactivity was determined. The ability of the test compounds to bind AR is reported as reduction in bound radioactivity obtained with 1 nM [^3H]-mibolerone. The results (% inhibition) were calculated as: % inhibition=100−(100×(averagetest compound/averagetotal)).

[3] = 5 mg/kg s.c. once daily for three days, immature male rat

`CCC(=O)O[C@H]1CC[C@H]2[C@@H]3CCC4=CC(=O)CC[C@]4(C)[C@H]3CC[C@]12C` [testosterone propionate, Testosterone propionate, reference compound] was tested, and the “relative weight of levator ani-muscle” value [1, 3] was “increased significantly”, the “relative weight of seminal vesicle” value [1, 3] was “increased significantly” and the “relative weight of ventral prostate” value [1, 3] was “increased significantly”. The “effect on the body weights” value ([1]; rat, in vivo, sc) was “Neither testosterone propionate nor compound A had any effect”.

In the case of `Cc1cc(NC(=O)C(C)(O)COc2ccc(C#N)cc2)ccc1[N+](=O)[O-]` (centres unmarked) [Example 17, 3-(4-Cyanophenoxy)-2-hydroxy-2-methyl-N-(3-methyl-4-nitrophenyl)propionamide], the inhibition at 0.2 µM ([2]; test compound 0.2 μM) is reported as 95% and the inhibition at 2 µM ([2]; test compound 2.0 μM) is reported as 98%.

`Cc1cc(NC(=O)C(C)(O)COc2ccc(C(F)(F)F)cc2)ccc1[N+](=O)[O-]` (centres unmarked) [Example 15, 2-Hydroxy-2-methyl-N-(3-methyl-4-nitrophenyl)-3-(4-trifluoromethylphenoxy)propionamide] showed an inhibition at 0.2 µM ([2]; test compound 0.2 μM) of 46% and an inhibition at 2 µM ([2]; test compound 2.0 μM) of 77%.

For `Cc1cc(NC(=O)C(C)(O)COc2ccc(F)c(F)c2)ccc1[N+](=O)[O-]` (centres unmarked) [Example 28, 3-(3,4-Difluorophenoxy)-2-hydroxy-2-methyl-N-(3-methyl-4-nitrophenyl)propionamide], the inhibition at 0.2 µM ([2]; test compound 0.2 μM) was 90% and the inhibition at 2 µM ([2]; test compound 2.0 μM) was 88%.

`Cc1cc(NC(=O)C(C)(O)COc2ccc(Cl)cc2)ccc1[N+](=O)[O-]` (centres unmarked) [Example 23, 3-(4-Chlorophenoxy)-2-hydroxy-2-methyl-N-(3-methyl-4-nitrophenyl)propionamide] showed an inhibition at 0.2 µM ([2]; test compound 0.2 μM) of 88% and an inhibition at 2 µM ([2]; test compound 2.0 μM) of 92%.

`Cc1cc(NC(=O)C(C)(O)COc2ccc3cc(Br)ccc3c2)ccc1[N+](=O)[O-]` (centres unmarked) [Example 30, 3-(6-Bromonaphtalen-2-yloxy)-2-hydroxy-2-methyl-N-(3-methyl-4-nitrophenyl)-propionamide] was tested, and the “Inhibition (%) of [3H]-mibolerone binding at 0.2 μM” value ([2]; test compound 0.2 μM) was 80% and the “Inhibition (%) of [3H]-mibolerone binding at 2.0 μM” value ([2]; test compound 2.0 μM) was 99%.

Compound `Cc1cc(NC(=O)[C@@](C)(O)COc2ccc(C#N)c(F)c2)ccc1[N+](=O)[O-]` [Example 43, (2S)-3-(4-Cyano-3-fluorophenoxy)-2-hydroxy-2-methyl-N-(3-methyl-4-nitrophenyl)propionamide] has an inhibition at 0.2 µM ([2]; test compound 0.2 μM) of 95% and an inhibition at 2 µM ([2]; test compound 2.0 μM) of 99%.

`Cc1cc(NC(=O)C(C)(O)COc2ccc(OC(F)(F)F)cc2)ccc1[N+](=O)[O-]` (centres unmarked) [Example 9, 2-Hydroxy-2-methyl-N-(3-methyl-4-nitrophenyl)-3-(4-trifluoromethoxyphenoxy)propionamide] was tested, and the inhibition at 0.2 µM ([2]; test compound 0.2 μM) was 41% and the inhibition at 2 µM ([2]; test compound 2.0 μM) was 102%.

`COc1ccc(OCC(C)(O)C(=O)Nc2ccc([N+](=O)[O-])c(C)c2)cc1` (centres unmarked) [Example 25, 2-Hydroxy-3-(4-methoxyphenoxy)-2-methyl-N-(3-methyl-4-nitrophenyl)propionamide] gave an inhibition at 0.2 µM ([2]; test compound 0.2 μM) of 96% and an inhibition at 2 µM ([2]; test compound 2.0 μM) of 98%.

`Cc1cc(NC(=O)C(C)(O)CNc2ccc(F)cc2)ccc1[N+](=O)[O-]` (centres unmarked) [Example 52, 3-(4-Fluorophenylamino)-2-hydroxy-2-methyl-N-(3-methyl-4-nitrophenyl)propionamide] showed an inhibition at 0.2 µM ([2]; test compound 0.2 μM) of 90% and an inhibition at 2 µM ([2]; test compound 2.0 μM) of 115%.

`Cc1cc(NC(=O)C(C)(O)COc2ccc(F)c(Cl)c2)ccc1[N+](=O)[O-]` (centres unmarked) [Example 8, 3-(3-Chloro-4-fluorophenoxy)-2-hydroxy-2-methyl-N-(3-methyl-4-nitrophenyl)propionamide] showed an inhibition at 0.2 µM ([2]; test compound 0.2 μM) of 93% and an inhibition at 2 µM ([2]; test compound 2.0 μM) of 109%.

In the case of `COCc1ccc(OCC(C)(O)C(=O)Nc2ccc([N+](=O)[O-])c(C)c2)cc1` (centres unmarked) [Example 81, 2-Hydroxy-3-(4-methoxymethylphenoxy)-2-methyl-N-(3-methyl-4-nitrophenyl)propionamide], the inhibition at 0.2 µM ([2]; test compound 0.2 μM) is reported as 85% and the inhibition at 2 µM ([2]; test compound 2.0 μM) is reported as 98%.

In the case of `CC(=O)Nc1ccc(OCC(C)(O)C(=O)Nc2ccc([N+](=O)[O-])c(C)c2)cc1F` (centres unmarked) [Example 2, 3-(4-Acetylamino-3-fluorophenoxy)-2-hydroxy-2-methyl-N-(3-methyl-4-nitrophenyl)propionamide], the inhibition at 0.2 µM ([2]; test compound 0.2 μM) is reported as 93% and the inhibition at 2 µM ([2]; test compound 2.0 μM) is reported as 100%.

For `Cc1cc(NC(=O)C(C)(O)COc2ccc(CCO)cc2)ccc1[N+](=O)[O-]` (centres unmarked) [Example 20, 2-Hydroxy-3-[4-(2-hydroxyethyl)phenoxy]-2-methyl-N-(3-methyl-4-nitrophenyl)propionamide], the inhibition at 0.2 µM ([2]; test compound 0.2 μM) was 13% and the inhibition at 2 µM ([2]; test compound 2.0 μM) was 83%.

For `CCOC(=O)Nc1ccc(OCC(C)(O)C(=O)Nc2ccc([N+](=O)[O-])c(C)c2)cc1F` (centres unmarked) [Example 50, {2-Fluoro-4-[2-hydroxy-2-(3-methyl-4-nitrophenylcarbamoyl)propoxy]-phenyl}carbamic acid ethyl ester], the inhibition at 0.2 µM ([2]; test compound 0.2 μM) was 96% and the inhibition at 2 µM ([2]; test compound 2.0 μM) was 99%.

Compound `Cc1cc(NC(=O)C(C)(O)CNc2ccc(C#N)cc2)ccc1[N+](=O)[O-]` (centres unmarked) [Example 55, 3-(4-Cyanophenylamino)-2-hydroxy-2-methyl-N-(3-methyl-4-nitrophenyl)propionamide] has an inhibition at 0.2 µM ([2]; test compound 0.2 μM) of 87% and an inhibition at 2 µM ([2]; test compound 2.0 μM) of 99%.

`Cc1cc(NC(=O)C(C)(O)COc2ccc(C#N)c(Cl)c2)ccc1[N+](=O)[O-]` (centres unmarked) [Example 63, 3-(3-Chloro-4-cyanophenoxy)-2-hydroxy-2-methyl-N-(3-methyl-4-nitrophenyl)propionamide] was tested, and the inhibition at 0.2 µM ([2]; test compound 0.2 μM) was 92% and the inhibition at 2 µM ([2]; test compound 2.0 μM) was 98%.

Work on `Cc1cc(NC(=O)C(C)(O)COc2ccc(C#N)c(F)c2)ccc1[N+](=O)[O-]` (centres unmarked) [Example 42, 3-(4-Cyano-3-fluorophenoxy)-2-hydroxy-2-methyl-N-(3-methyl-4-nitrophenyl)propionamide] yielded an inhibition at 0.2 µM ([2]; test compound 0.2 μM) of 83% and an inhibition at 2 µM ([2]; test compound 2.0 μM) of 97%.

Work on `Cc1cc(NC(=O)C(C)(O)CNc2ccc(C#N)c(Cl)c2)ccc1[N+](=O)[O-]` (centres unmarked) [Example 56, 3-(3-Chloro-4-cyanophenylamino)-2-hydroxy-2-methyl-N-(3-methyl-4-nitrophenyl)propionamide] yielded an inhibition at 0.2 µM ([2]; test compound 0.2 μM) of 90% and an inhibition at 2 µM ([2]; test compound 2.0 μM) of 95%.

`Cc1cc(NC(=O)C(C)(O)COc2ccc(Cl)c([N+](=O)[O-])c2)ccc1[N+](=O)[O-]` (centres unmarked) [Example 44, 3-(4-Chloro-3-nitrophenoxy)-2-hydroxy-2-methyl-N-(3-methyl-4-nitrophenyl)propionamide] showed an inhibition at 0.2 µM ([2]; test compound 0.2 μM) of 83% and an inhibition at 2 µM ([2]; test compound 2.0 μM) of 100%.

In the case of `Cc1cc(NC(=O)C(C)(O)COc2cccc(Cl)c2Cl)ccc1[N+](=O)[O-]` (centres unmarked) [Example 10, 3-(2,3-Dichlorophenoxy)-2-hydroxy-2-methyl-N-(3-methyl-4-nitrophenyl)propionamide], the inhibition at 0.2 µM ([2]; test compound 0.2 μM) is reported as 5% and the inhibition at 2 µM ([2]; test compound 2.0 μM) is reported as 83%.
